Source: ChEMBL document CHEMBL3046405, “Knockdown of several components of cytochrome P450 enzyme systems by RNA interference enhances the susceptibility of Helicoverpa armigera to fenvalerate” (2012)

Experiments:
Format in all cases: functional
[1] = test system: Helicoverpa armigera; test: Insecticidal activity against fenvalerate-resistant Helicoverpa armigera HDFR third-instar larvae injected with TE buffer assessed as compound level per larva causing mortality after 24 hr
[2] = test system: Helicoverpa armigera; test: Insecticidal activity against fenvalerate-resistant Helicoverpa armigera HDFR third-instar larvae injected with dsCYP6B7-313-1 dsRNA plus dsCPR-403-1 dsRNA and dsCyt-b5-4 dsRNA assessed as compound level per larva causing mortality after 36 hr
[3] = test system: Helicoverpa armigera; test: Insecticidal activity against fenvalerate-resistant Helicoverpa armigera HDFR third-instar larvae injected with TE buffer assessed as compound level per larva causing mortality after 12 hr
[4] = test system: Helicoverpa armigera; test: Potency index, ratio of LD50 for fenvalerate-resistant Helicoverpa armigera HDFR third-instar larvae injected with TE buffer to LD50 for fenvalerate-resistant Helicoverpa armigera HDFR third-instar larvae injected with dsCYP6B7-313-1 dsRNA after 48 hr
[5] = test system: Helicoverpa armigera; test: Insecticidal activity against fenvalerate-resistant Helicoverpa armigera HDFR third-instar larvae without dsRNA injection assessed as compound level per larva causing mortality after 36 hr
[6] = test system: Helicoverpa armigera; test: Potency index, ratio of LD50 for fenvalerate-resistant Helicoverpa armigera HDFR third-instar larvae injected with TE buffer to LD50 for fenvalerate-resistant Helicoverpa armigera HDFR third-instar larvae injected with dsCYP6B7-313-1 dsRNA plus dsCPR-403-1 after 12 hr
[7] = test system: Helicoverpa armigera; test: Insecticidal activity against fenvalerate-resistant Helicoverpa armigera HDFR third-instar larvae without dsRNA injection assessed as compound level per larva causing mortality after 24 hr
[8] = test system: Helicoverpa armigera; test: Potency index, ratio of LD50 for fenvalerate-resistant Helicoverpa armigera HDFR third-instar larvae injected with TE buffer to LD50 for fenvalerate-resistant Helicoverpa armigera HDFR third-instar larvae injected with dsCYP6B7-313-1 dsRNA plus dsCyt-b5-4 dsRNA after 12 hr
[9] = test system: Helicoverpa armigera; test: Potency index, ratio of LD50 for fenvalerate-resistant Helicoverpa armigera HDFR third-instar larvae injected with TE buffer to LD50 for fenvalerate-resistant Helicoverpa armigera HDFR third-instar larvae injected with dsCYP6B7-313-1 dsRNA plus dsCPR-403-1 dsRNA and dsCyt-b5-4 dsRNA after 24 hr
[10] = test system: Helicoverpa armigera; test: Insecticidal activity against fenvalerate-resistant Helicoverpa armigera HDFR third-instar larvae injected with dsCYP6B7-313-1 dsRNA assessed as compound level per larva causing mortality after 12 hr
[11] = test system: Helicoverpa armigera; test: Potency index, ratio of LD50 for fenvalerate-resistant Helicoverpa armigera HDFR third-instar larvae injected with TE buffer to LD50 for fenvalerate-resistant Helicoverpa armigera HDFR third-instar larvae injected with dsCYP6B7-313-1 dsRNA plus dsCPR-403-1 dsRNA and dsCyt-b5-4 dsRNA after 36 hr
[12] = test system: Helicoverpa armigera; test: Insecticidal activity against fenvalerate-resistant Helicoverpa armigera HDFR third-instar larvae injected with dsCYP6B7-313-1 dsRNA plus dsCyt-b5-4 dsRNA assessed as compound level per larva causing mortality after 48 hr
[13] = test system: Helicoverpa armigera; test: Insecticidal activity against fenvalerate-resistant Helicoverpa armigera HDFR third-instar larvae injected with dsCYP6B7-313-1 dsRNA plus dsCPR-403-1 dsRNA assessed as compound level per larva causing mortality after 36 hr
[14] = test system: Helicoverpa armigera; test: Potency index, ratio of LD50 for fenvalerate-resistant Helicoverpa armigera HDFR third-instar larvae injected with TE buffer to LD50 for fenvalerate-resistant Helicoverpa armigera HDFR third-instar larvae injected with dsCYP6B7-313-1 dsRNA plus dsCPR-403-1 after 24 hr
[15] = test system: Helicoverpa armigera; test: Potency index, ratio of LD50 for fenvalerate-resistant Helicoverpa armigera HDFR third-instar larvae injected with TE buffer to LD50 for fenvalerate-resistant Helicoverpa armigera HDFR third-instar larvae injected with dsCYP6B7-313-1 dsRNA plus dsCPR-403-1 after 48 hr
[16] = test system: Helicoverpa armigera; test: Insecticidal activity against fenvalerate-resistant Helicoverpa armigera HDFR third-instar larvae injected with dsCYP6B7-313-1 dsRNA plus dsCyt-b5-4 dsRNA assessed as compound level per larva causing mortality after 36 hr
[17] = test system: Helicoverpa armigera; test: Potency index, ratio of LD50 for fenvalerate-resistant Helicoverpa armigera HDFR third-instar larvae injected with TE buffer to LD50 for fenvalerate-resistant Helicoverpa armigera HDFR third-instar larvae injected with dsCYP6B7-313-1 dsRNA plus dsCPR-403-1 dsRNA and dsCyt-b5-4 dsRNA after 12 hr
[18] = test system: Helicoverpa armigera; test: Insecticidal activity against fenvalerate-resistant Helicoverpa armigera HDFR third-instar larvae injected with TE buffer assessed as compound level per larva causing mortality after 36 hr
[19] = test system: Helicoverpa armigera; test: Insecticidal activity against fenvalerate-resistant Helicoverpa armigera HDFR third-instar larvae injected with dsCYP6B7-313-1 dsRNA assessed as compound level per larva causing mortality after 24 hr
[20] = test system: Helicoverpa armigera; test: Potency index, ratio of LD50 for fenvalerate-resistant Helicoverpa armigera HDFR third-instar larvae injected with TE buffer to LD50 for fenvalerate-resistant Helicoverpa armigera HDFR third-instar larvae injected with dsCYP6B7-313-1 dsRNA after 12 hr
[21] = test system: Helicoverpa armigera; test: Potency index, ratio of LD50 for fenvalerate-resistant Helicoverpa armigera HDFR third-instar larvae injected with TE buffer to LD50 for fenvalerate-resistant Helicoverpa armigera HDFR third-instar larvae injected with dsCYP6B7-313-1 dsRNA plus dsCyt-b5-4 dsRNA after 24 hr
[22] = test system: Helicoverpa armigera; test: Insecticidal activity against fenvalerate-resistant Helicoverpa armigera HDFR third-instar larvae injected with dsCYP6B7-313-1 dsRNA plus dsCPR-403-1 dsRNA assessed as compound level per larva causing mortality after 12 hr
[23] = test system: Helicoverpa armigera; test: Insecticidal activity against fenvalerate-resistant Helicoverpa armigera HDFR third-instar larvae injected with dsCYP6B7-313-1 dsRNA plus dsCPR-403-1 dsRNA and dsCyt-b5-4 dsRNA assessed as compound level per larva causing mortality after 24 hr
[24] = test system: Helicoverpa armigera; test: Insecticidal activity against fenvalerate-resistant Helicoverpa armigera HDFR third-instar larvae injected with dsCYP6B7-313-1 dsRNA plus dsCPR-403-1 dsRNA assessed as compound level per larva causing mortality after 48 hr
[25] = test system: Helicoverpa armigera; test: Potency index, ratio of LD50 for fenvalerate-resistant Helicoverpa armigera HDFR third-instar larvae injected with TE buffer to LD50 for fenvalerate-resistant Helicoverpa armigera HDFR third-instar larvae injected with dsCYP6B7-313-1 dsRNA after 24 hr
[26] = test system: Helicoverpa armigera; test: Insecticidal activity against fenvalerate-resistant Helicoverpa armigera HDFR third-instar larvae injected with dsCYP6B7-313-1 dsRNA plus dsCPR-403-1 dsRNA and dsCyt-b5-4 dsRNA assessed as compound level per larva causing mortality after 12 hr
[27] = test system: Helicoverpa armigera; test: Insecticidal activity against fenvalerate-resistant Helicoverpa armigera HDFR third-instar larvae without dsRNA injection assessed as compound level per larva causing mortality after 12 hr
[28] = test system: Helicoverpa armigera; test: Insecticidal activity against fenvalerate-resistant Helicoverpa armigera HDFR third-instar larvae injected with dsCYP6B7-313-1 dsRNA plus dsCPR-403-1 dsRNA and dsCyt-b5-4 dsRNA assessed as insect mortality at 4 to 16 ug/larva after 48 hr (fenvalerate alone control = 29.1 to 50.0%)
[29] = test system: Helicoverpa armigera; test: Resistance index, ratio of LD50 for fenvalerate-resistant Helicoverpa armigera HDFR third-instar larvae to LD50 for fenvalerate-susceptible Helicoverpa armigera third-instar larvae
[30] = test system: Helicoverpa armigera; test: Potency index, ratio of LD50 for fenvalerate-resistant Helicoverpa armigera HDFR third-instar larvae injected with TE buffer to LD50 for fenvalerate-resistant Helicoverpa armigera HDFR third-instar larvae injected with dsCYP6B7-313-1 dsRNA plus dsCyt-b5-4 dsRNA after 48 hr
[31] = test system: Helicoverpa armigera; test: Potency index, ratio of LD50 for fenvalerate-resistant Helicoverpa armigera HDFR third-instar larvae injected with TE buffer to LD50 for fenvalerate-resistant Helicoverpa armigera HDFR third-instar larvae injected with dsCYP6B7-313-1 dsRNA plus dsCPR-403-1 dsRNA and dsCyt-b5-4 dsRNA after 48 hr
[32] = test system: Helicoverpa armigera; test: Insecticidal activity against fenvalerate-resistant Helicoverpa armigera HDFR third-instar larvae injected with dsCYP6B7-313-1 dsRNA plus dsCPR-403-1 dsRNA and dsCyt-b5-4 dsRNA assessed as compound level per larva causing mortality after 48 hr
[33] = test system: Helicoverpa armigera; test: Potency index, ratio of LD50 for fenvalerate-resistant Helicoverpa armigera HDFR third-instar larvae injected with TE buffer to LD50 for fenvalerate-resistant Helicoverpa armigera HDFR third-instar larvae injected with dsCYP6B7-313-1 dsRNA plus dsCPR-403-1 after 36 hr
[34] = test system: Helicoverpa armigera; test: Insecticidal activity against fenvalerate-resistant Helicoverpa armigera HDFR third-instar larvae without dsRNA injection assessed as compound level per larva causing mortality after 48 hr
[35] = test system: Helicoverpa armigera; test: Insecticidal activity against fenvalerate-resistant Helicoverpa armigera HDFR third-instar larvae injected with dsCYP6B7-313-1 dsRNA assessed as compound level per larva causing mortality after 36 hr
[36] = test system: Helicoverpa armigera; test: Insecticidal activity against fenvalerate-resistant Helicoverpa armigera HDFR third-instar larvae injected with dsCYP6B7-313-1 dsRNA plus dsCyt-b5-4 dsRNA assessed as compound level per larva causing mortality after 24 hr
[37] = test system: Helicoverpa armigera; test: Insecticidal activity against fenvalerate-susceptible Helicoverpa armigera third-instar larvae assessed as compound level per larva causing mortality after 48 hr
[38] = test system: Helicoverpa armigera; test: Insecticidal activity against fenvalerate-resistant Helicoverpa armigera HDFR third-instar larvae injected with dsCYP6B7-313-1 dsRNA plus dsCPR-403-1 dsRNA assessed as compound level per larva causing mortality after 24 hr
[39] = test system: Helicoverpa armigera; test: Insecticidal activity against fenvalerate-resistant Helicoverpa armigera HDFR third-instar larvae injected with dsCYP6B7-313-1 dsRNA plus dsCyt-b5-4 dsRNA assessed as compound level per larva causing mortality after 12 hr
[40] = test system: Helicoverpa armigera; test: Insecticidal activity against fenvalerate-resistant Helicoverpa armigera HDFR third-instar larvae injected with dsCYP6B7-313-1 dsRNA plus dsCyt-b5-4 dsRNA assessed as insect mortality at 4 to 16 ug/larva after 48 hr (fenvalerate alone control = 29.1 to 50.0%)
[41] = test system: Helicoverpa armigera; test: Insecticidal activity against fenvalerate-resistant Helicoverpa armigera HDFR third-instar larvae injected with dsCYP6B7-313-1 dsRNA plus dsCPR-403-1 dsRNA assessed as insect mortality at 4 to 16 ug/larva after 48 hr (fenvalerate alone control = 29.1 to 50.0%)
[42] = test system: Helicoverpa armigera; test: Insecticidal activity against fenvalerate-resistant Helicoverpa armigera HDFR third-instar larvae injected with dsCYP6B7-313-1 dsRNA assessed as compound level per larva causing mortality after 48 hr
[43] = test system: Helicoverpa armigera; test: Potency index, ratio of LD50 for fenvalerate-resistant Helicoverpa armigera HDFR third-instar larvae injected with TE buffer to LD50 for fenvalerate-resistant Helicoverpa armigera HDFR third-instar larvae injected with dsCYP6B7-313-1 dsRNA plus dsCyt-b5-4 dsRNA after 36 hr
[44] = test system: Helicoverpa armigera; test: Insecticidal activity against fenvalerate-resistant Helicoverpa armigera HDFR third-instar larvae injected with TE buffer assessed as compound level per larva causing mortality after 48 hr
[45] = test system: Helicoverpa armigera; test: Insecticidal activity against fenvalerate-resistant Helicoverpa armigera HDFR third-instar larvae injected with dsCYP6B7-313-1 dsRNA assessed as insect mortality at 4 to 16 ug/larva after 48 hr (fenvalerate alone control = 29.1 to 50.0%)
[46] = test system: Helicoverpa armigera; test: Potency index, ratio of LD50 for fenvalerate-resistant Helicoverpa armigera HDFR third-instar larvae injected with TE buffer to LD50 for fenvalerate-resistant Helicoverpa armigera HDFR third-instar larvae injected with dsCYP6B7-313-1 dsRNA after 36 hr
[47] = test system: Helicoverpa armigera; test: Insecticidal activity against fenvalerate-resistant Helicoverpa armigera HDFR third-instar larvae assessed as compound level per larva causing mortality after 48 hr

In the case of `CC(C)C(C(=O)OC(C#N)c1cccc(Oc2ccccc2)c1)c1ccc(Cl)cc1` (configuration not stated) [FENVALERATE], the LD50 [1] is reported as 35.2 µg, the LD50 [2] is reported as 8.6 µg and the LD50 [3] is reported as 46.8 µg. It also gave a Ratio [4] of 2, an LD50 [5] of 26.1 µg and a Ratio [6] of 2.8. The LD50 [7] was 35.7 µg, the Ratio [8] was 2.5 and the Ratio [9] was 3.5. The LD50 [10] was 23.9 µg, the Ratio [11] was 3 and the LD50 [12] was 6.9 µg. It also gave an LD50 [13] of 8.9 µg, a Ratio [14] of 2.9 and a Ratio [15] of 2.4. It also gave an LD50 [16] of 9.9 µg, a Ratio [17] of 3.7 and an LD50 [18] of 25.6 µg. It also gave an LD50 [19] of 19.7 µg, a Ratio [20] of 2 and a Ratio [21] of 2.4. For the same compound, the LD50 [22] was 16.8 µg, the LD50 [23] was 10.2 µg and the LD50 [24] was 8.9 µg. The Ratio [25] was 1.8, the LD50 [26] was 12.6 µg and the LD50 [27] was 48.8 µg. It also gave a mortality [28] of 44.4%, a Ratio [29] of 164 and a Ratio [30] of 3.1. It also gave a Ratio [31] of 3.2, an LD50 [32] of 6.7 µg and a Ratio [33] of 2.9. The LD50 [34] was 23.1 µg, the LD50 [35] was 16.5 µg and the LD50 [36] was 14.5 µg. The LD50 [37] was 0.0982 µg, the LD50 [38] was 12.3 µg and the LD50 [39] was 19 µg. It also gave a mortality [40] of 50%, a mortality [41] of 40.7% and an LD50 [42] of 10.7 µg. For the same compound, the Ratio [43] was 2.6, the LD50 [44] was 21.5 µg and the mortality [45] was 38.8%. It also gave a Ratio [46] of 1.6 and an LD50 [47] of 16.13 µg.
